This is an account of results in PMC8875392, “Design and Characterization of Myristoylated and Non-Myristoylated Peptides Effective against Candida spp. Clinical Isolates” (International Journal of Molecular Sciences, 2022).

Where no end group is shown, it is not given here.

Data set [1] has as its system C. albicans clinical isolates. In kind it is cell-based, Candida albicans. The conditions noted are these: 16 h. Here is the method: (§1) The antifungal activity of AMPs was determined against 50 clinical isolates, 10 for each of the following Candida species: C. albicans, C. tropicalis, C. glabrata, C. parapsilosis, and C. auris. The latter were derived from patients with positive blood cultures in four hospitals in India, with known resistance profiles to fluconazole, voriconazole, and echinocandins. Yeast cells were grown in Brain Heart Infusion (BHI) medium (Sigma-Aldrich, Gillingham, UK) for 16 h at 37 °C in a 150-rpm orbital shaker. Cells were then sub-inoculated in a fresh BHI medium and grown to an optical density (OD) of 0.3. The turbidity of the inoculum was adjusted to 0.5 McFarland and diluted 1:500 in RPMI 1640 broth, corresponding to around […].
(§2) Minimal inhibitory concentrations (MICs) were determined by Broth microdilution susceptibility tests, according to The Clinical and Laboratory Standards Institute (CLSI) international guidelines. A fungal suspension of 0.5 MacFarland was diluted 1:500 in RPMI 1640 broth and incubated in 96 multi-well plates containing AMPs at different concentrations ranging from 0.125 to 256 μg/mL. In this range of concentration, lipopeptides were completely soluble. […] The MIC90 represents the value at which ≥90% of the strains within a test population were inhibited.

Data set [2] concerns C. glabrata clinical isolates. The data set is classed as cell-based, Candida glabrata. The settings on record: 16 h. Here is the method: as §1, §2
Data set [3] has as its system C. parapsilosis clinical isolates. In kind it is cell-based, Candida parapsilosis. The settings on record: clinical isolates, 16 h. How it is done:
as §1, §2

The subject of data set [4] is C. tropicalis clinical isolates. The data set is classed as cell-based, Candida tropicalis. The settings on record: clinical isolates, 16 h. Here is the method: as §1, §2
Data set [5] has as its system C. auris clinical isolates. The data set is classed as cell-based, Candida auris. The conditions noted are these: clinical isolates, 16 h. Here is the method:
as §1, §2

The subject of a further data set is rabbit erythrocytes. The settings on record: 5 µM.
Data set [6] relates to Galleria mellonella larvae. The data set is described as follows: In vivo peptide toxicity in Galleria mellonella model. The conditions noted are these: uninfected larvae, groups of ten, peptide 640 µg/mL, single injection, 30 °C. How it is done:
Multidrug-resistant C. auris was chosen as a representative species for in vivo studies. […] Groups of ten G. mellonella larvae were infected with C. auris and treated with the Pep-B and Myr-B peptides at a concentration of 640 µg/mL (about 400 µM).
Ten larvae (250–320 mg each) were selected at random for each step in the procedure. Any larvae with darkening of the cuticle were discarded. The test compounds and yeast were injected into the hemocoel in water buffer through the last left proleg (Insumed 30G Pic, Italy, syringe volume 0.5 mL, needle size 30G). The larvae were incubated in the dark for 3 days, and mortality was recorded daily.
For the peptide efficacy experiment, ten larvae were injected into the last left proleg with a pre-determined infective dose of yeast and the dose of peptides at the same time in a final volume of 10 μL and incubated at 30 °C. Each step in the procedure included six groups of 10 larvae: C. auris-infected larvae (10^7 CFU), infected and treated larvae with peptide B (640 μg/mL), infected and treated larvae with peptide Myr-B (640 μg/mL), treated larvae with peptide B (640 μg/mL), treated larvae with peptide Myr-B (640 μg/mL), and vehicle-injected control (water). The mortality was recorded daily for 3 days.

As a reminder, the MIC is the lowest concentration that inhibits growth of the organism. A higher MIC goes with a less susceptible organism. Broadly, the MIC90 is the lowest concentration that inhibits either 90% of growth or 90% of the strains tested, depending on the study.

Description for rabbit erythrocytes: The hemolytic assay was performed on rabbit erythrocytes (Rockland) maintained in Alsever’s solution (Innovative Research). Briefly, after the removal of Alsever’s solution, the erythrocytes were resuspended in PBS and counted in a hemocytometer. A suspension of 5,000,000 red blood cells was incubated with four dilutions (from 5 µm to 50 µm) of the six peptides in a 96-well microplate. As a negative control, erythrocytes were incubated without the peptides, while as a positive control, erythrocyte was added with triton 10% v/v. The plate was incubated at 37 °C for 2 h and subsequently centrifuged at 1200 rpm × 3 min to separate the pellet from the supernatant. The absorbance of the supernatant was measured at 492 nm. Each point was made in triplicate. The relative OD compared to the positive control defined the percentage of hemolysis [71]. Statistical analysis was performed using two-way ANOVA analysis followed by Bonferroni’s post-test.

For WVVKKVKGLLK [Pep-C], the MIC in data set [1], in data set [2] and in data set [3] was > 256 µg/mL in each case. Besides, the MIC90 in data set [1], in data set [2], in data set [3], in data set [4] and in data set [5] was >256 µg/mL throughout.
In the case of WFGKLYRGITK [Pep-A], the MIC in data set [1], in data set [2] and in data set [3] was > 256 µg/mL each time. In addition, the MIC90 in data set [1], in data set [2], in data set [3], in data set [4] and in data set [5] was >256 µg/mL each time. The same sequence returned a hemolysis with rabbit erythrocytes of 0.1%.
WRGITKVVKKV [Pep-B]: the MIC in data set [1], in data set [2] and in data set [3] was > 256 µg/mL each time. For the same sequence, the MIC90 in data set [1], in data set [2], in data set [3], in data set [4] and in data set [5] was >256 µg/mL each time. Besides, in data set [6], the “Peptide toxicity, DAY 1 Dead” value stood at 3. In data set [6], the “Peptide toxicity, DAY 2 Dead” value amounted to 5. In addition, the “Peptide toxicity, DAY 3 Dead” value in data set [6] is recorded as 9.
